Assay results published in patent US6727240B1, “Methods for preventing HIV-1 or HIV-2 infection” (New York Blood Center, Inc., priority 1993, dated 2004).

How the values were obtained:
[1] = system: MT-2 cells; assay: Cytotoxic effect in the absence of HIV-1 (lysis of uninfected cells); assay type: cell-based
[2] = system: HIV-1
Protocol: They were tested for antiviral activity at serial two-fold dilutions (0.16-80 μg/ml^−1). Their inhibitory activity was determined based on inhibition of synthesis of the HIV-1 core protein p24 and on protection by the compounds of cells against the cytopathic effect of HIV-1. The cytotoxic effect of all compounds in the absence of HIV-1 was also determined.
The antiviral activity of the compounds was tested against HIV-1 IIIB, MN, RF and SF-2, as well as against azidothymidine (AZT) resistant variants V32 (Nara, P. L., Smit, L., Dunlop, N., Hatch, W., Merges, M., Waters, D. Kelliher, J., Gallo, R. C., Fischinger, P. J. & Goudsmit, J. (1990), “Emergence of Viruses Resistant to Neutralization by V3-specific Antibodies in Experimental Human Immunodeficiency Virus Type 1 IIIB Infection of Chimpanzees, J. Virol., 64, 3779-3791) and AZT-R (see FIG. 1B).
All chemicals were tested at serial two-fold dilutions (1.25-80 μgml^−1, prepared from a stock solution containing 10 mgml^−1 in dimethylsulphoxide). […] Their inhibitory activity was determined by two distinct methods, based on inhibition of synthesis of core protein p24 and on protection by the chemicals of cells against the cytophathic effect of HIV-1 (colorimetric method), respectively.
The chemicals were serially diluted in RPMl-1640 medium without phenol red (Gibco, Grand Island, N.Y.) containing 10% fetal calf serum (FCS). Aliquots of the diluted solutions were added to wells of 96-well plates and mixed with an equal volume of diluted HIV-1 [multiplicity of infection (MOl)=0.0045]. After incubation for 1 hour at 37° C., 25 μl of polybrene (1 μgml^−1)-treated MT-2 cells (Harada et al., (1985), “Infection of HTLV-III/LAV in HTLV-1-Carrying Cells MT-2 and MT-4 and Application in Plaque Assay”, Science, 229, 563-566) (5000 cells/well) were added. The mixture was incubated for 1 hour at 37° C. and the volume was adjusted with RPMl-1640 medium with 10% FCS to 200 μl. On the fourth and sixth day after incubation at 37° C., 100 μl of culture supernatants were collected from each well and equal volumes of fresh medium were added to the wells. The supernatants were collected from each well and equal volumes of fresh medium were added to the wells. The supernatants were assayed for p24 using a kit from Coulter Immunology (Hialeah, Fla.). On the sixth day, an indicator, XTT tetrazolium dye (1 mg/ml:50 μl/well; PolySciences, Inc., Warrington, Pa.) was added to the cells. After 4 hours intracellular formazan was determined colorimetrically at 450 nm.

[3] = versus Sn-PTP-IX; cited from earlier work
[4] = system: V3 hypervariable loop peptides from gp120 from 21 distinct HIV-1 isolates; assay: ELISA: reaction of V3 hypervariable loop peptides with homologous anti-peptide antisera; assay type: binding; settings: rabbit antisera diluted 1:1,000; FIG. 2
Protocol: (§1) The inhibitory effect of PTP-IX and its metal derivatives on binding to gp120 of monoclonal antibodies (mAbs) specific for the V3 loop or for the CD4 binding site was measured by ELISA tests using as second antibodies horseradish peroxidase (HRP) labeled anti-mouse IgG.
Sn-PTP-IX was also tested for inhibition of the reaction between V3 hypervariable loop peptides from 21 distinct HIV-1 isolates and the corresponding homologous antipeptide antibodies. […] With respect of FIG. 2, peptide coated wells of polystyrene plates were reacted in the presence and absence of the porphyrin derivative with the respective rabbit antisera diluted 1:1,000, and the attachment of rabbit IgG was subsequently determined using horseradish peroxidase labeled anti-rabbit IgG.
(§2) The inhibitory effect of PTP-IX and its metal complexes on the reaction between antibodies of distinct specificities and gp120 (or synthetic peptides derived from it) was calculated by the following formula: [formula]

[5] = target: T1, CD4 binding site of gp120 (recombinant gp120) (Human immunodeficiency virus type 1 group M subtype B, UniProt P03375); assay: ELISA: binding of mAb 588D to gp120-coated wells; parameters: species or system HIV-1; settings: mAb 588D 200 ng/well; FIG. 3
T1 construct: recombinant gp120 produced insect cells infected with a baculovirus vector; host or cells: insect cells infected with a baculovirus vector
Protocol: as §1
The inhibitory effect of Sn-PTP-IX on the reaction between gp120 and mAb specific for the CD4 binding site on gp120 was also investigated. For this purpose, mAb 588D (obtained from the AIDS Research and Reagent Reference Program and from Dr. S. Zolla-Pazner of New York Veterans Affairs Medical Center) was used.
as §2

[6] = system: deletion mutant of gp120 lacking the V3 loop sequence; assay: Binding of CD4-binding-site mAbs to gp120 deletion mutant; parameters: species or system HIV-1

Molecule | CD50 = concentration at which 50% of uninfected cells were lysed [1] [µg/mL] | S.I. = selectivity index = CD50/ED50 (toxicity/activity) [2] | other results
C=CC1=C(C)c2cc3[n-]c(cc4[n-]c(cc5nc(cc1n2)C(C)=C5C=C)c(C)c4CCC(=O)O)c(CCC(=O)O)c3C.[Mn+2] [Mn-Protoporphyrin IX] | >80 | >2.8 | –
C=Cc1c(C)c2cc3[nH]c(cc4nc(cc5nc(cc1[nH]2)C(C)=C5CCC(=O)[O-])C(CCC(=O)[O-])=C4C)c(C)c3C=C.[Co+2] [Co-Protoporphyrin IX] | – | >6.2 | –
C=CC1=C(C)c2cc3[n-]c(cc4[n-]c(cc5nc(cc1n2)C(C)=C5C=C)c(C)c4CCC(=O)O)c(CCC(=O)O)c3C.[Zn+2] [Zn-Protoporphyrin IX] | – | >3.1 | ED50 values relative to Sn-PTP-IX (times higher) [3]: approximately 50 times
C=Cc1c2[n-]c(c1C)/C=c1\[n-]/c(c(C)c1C=C)=C\c1[n-]c(c(CCC(=O)O)c1C)C=c1[n-]/c(c(C)c1CCC(=O)O)=C\2.[Sn+4] [Sn-Protoporphyrin IX, tin protoporphyrin IX] | 18.0 | 33.5 | Inhibition of the reaction between V3 loop peptides and homologous antibodies [4]: inhibited; Inhibition of binding of mAb 588D to gp120 [5]: blocked in a concentration dependent manner; Inhibition of binding of CD4-binding-site mAbs to gp120 lacking the V3 loop [6]: not observed; Inhibition of HIV-1 infection (in words) ([2]; compared with metal-free PTP-IX): effectively inhibited HIV-1 infection at considerably lower concentrations than did metal-free PTP-IX
tin mesoporphyrin IX [Sn-Mesoporphyrin IX] | >20 | >5.6 | –
C=CC1=C(C)c2cc3[nH]c(cc4nc(cc5[nH]c(cc1n2)c(C)c5CCC(=O)O)C(CCC(=O)O)=C4C)c(C)c3C=C [Protoporphyrin IX] | – | 7.3 | –
